According to PubChem BioAssay (NCI):
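These data come from cells grown in 96-well plates and exposed to compound for 48 hours at five concentrations. GI50 is the concentration that inhibits growth by half. TGI: concentration producing complete growth inhibition.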

How the values were obtained:
Experiment in all cases: NCI anticancer screen, dose series, 48 h
[1] = test system: LOX IMVI melanoma
[2] = test system: SNB-75 CNS
[3] = test system: SK-OV-3 ovarian
[4] = test system: PC-3 prostate
[5] = test system: COLO 205 colon
[6] = test system: KM12 colon
[7] = test system: UO-31 renal
[8] = test system: OVCAR-4 ovarian
[9] = test system: OVCAR-8 ovarian
[10] = test system: IGROV1 ovarian

Row | Structure (SMILES) | GI50 [1] [µM] | TGI [1] [µM] | GI50 [2] [µM] | TGI [2] [µM] | GI50 [3] [µM] | TGI [3] [µM] | GI50 [4] [µM] | TGI [4] [µM] | GI50 [5] [µM] | TGI [5] [µM] | GI50 [6] [µM] | TGI [6] [µM] | GI50 [7] [µM] | TGI [7] [µM] | GI50 [8] [µM] | TGI [8] [µM] | GI50 [9] [µM] | TGI [9] [µM] | GI50 [10] [µM] | TGI [10] [µM]
1 | COc1cc2c3c(n(CCCN=[N+]=[N-])c(=O)c2cc1OC)-c1ccc(NC(C)=O)cc1C3=O | > 50 | > 50 | 25.8 | > 50 | > 50 | > 50 | > 50 | > 50 | > 50 | > 50 | > 50 | > 50 | 46.2 | > 50 | > 50 | > 50 | > 50 | > 50 | 47.3 | > 50
2 | O=C1c2ccccc2-c2c1c1ccc([N+](=O)[O-])cc1c(=O)n2CCN1CCOCC1 | 37.8 | > 100 | 35.5 | > 100 | > 100 | > 100 | > 100 | > 100 | > 100 | > 100 | > 100 | > 100 | > 100 | > 100 | > 100 | > 100 | > 100 | > 100 | > 100 | > 100
3 | COc1ccccc1C(=O)Nc1ccc(Cl)c(C(=O)OC(C)C)c1 | – | > 62.3 | – | > 100 | – | > 100 | – | > 100 | – | > 100 | – | > 100 | – | 27.9 | – | > 100 | – | > 100 | – | > 100
4 | COc1ccc2cn3c4ccc(O)cc4[nH]c(=O)c3c2c1 | 0.101 | 4.93 | 0.162 | 18.5 | 0.0889 | 13.9 | 0.131 | 16.9 | 0.348 | 2.87 | 0.0846 | 14.9 | 0.456 | 15.1 | 9.51 | 23.3 | 0.302 | 18.1 | 0.277 | 17.3
5 | O=C(Oc1c(Cl)c(Cl)c(Cl)c(Cl)c1Cl)C1CCCN1C(=O)OCc1ccccc1 (centres undefined) | 2.85 | 8.6 | 2.66 | 10.2 | 3.15 | 9.07 | 2.95 | 11.6 | 2.01 | 3.88 | 3.62 | 13 | 2.9 | 12.3 | 2.66 | 10.6 | 3.43 | 15.9 | 4 | 22
6 | Cn1c(=S)c2[nH]c(SCc3cccnc3)nc2n(C)c1=O | – | > 100 | – | > 100 | – | > 100 | – | > 100 | – | > 100 | – | > 100 | – | > 100 | – | > 100 | – | > 100 | – | > 100
7 | CCN(CC)CCC(CNc1c(C)cnc2cc(Cl)ccc12)c1ccc(Cl)c(Cl)c1 (centres undefined) | 1.59 | 3.14 | 3.9 | 18.7 | 14.4 | 28 | 4.1 | 16.2 | 1.55 | 3.24 | 4.34 | 17.7 | 2.59 | 13.9 | 3.81 | 19.2 | 9.89 | 24.9 | 2.26 | 12.1
8 | COc1ccc(C(=O)c2cc(C)c(OC)c(C)c2)c(OC)c1OC(=O)C(Cl)Cl | 0.0455 | > 100 | 0.031 | > 100 | 0.163 | > 100 | 0.0436 | > 100 | 6.74 | 32.4 | 0.0362 | > 100 | 0.0658 | > 50.5 | 0.422 | > 100 | 0.0456 | > 100 | 0.464 | > 100
9 | NC1=C(/C(N)=N/O)C(c2ccccc2)c2ccc3ccccc3c2O1 (centres undefined) | 0.621 | 17.2 | 0.108 | – | 0.616 | > 100 | 0.291 | > 100 | 0.456 | 7.26 | 0.302 | 36.4 | 0.348 | > 84.3 | 0.831 | > 100 | 0.725 | > 92.9 | 0.459 | > 64.3
10 | CC(=O)OCCC/C(=C/c1cc2ccccc2c2ccccc12)[N+](=O)[O-] | 0.423 | 1.08 | 0.606 | 2.17 | 2.56 | 7.38 | 1.89 | 3.94 | 1.67 | 3.03 | 1.56 | 2.89 | 1.09 | 2.3 | 1.75 | 3.29 | 1.61 | 3.21 | 1.06 | 2.81
11 | COc1cc(NC(=O)c2cc3ccccc3cc2O)c(OC)cc1Cl | 2.47 | > 100 | 1.44 | 5.04 | 1.39 | 3.94 | 1.56 | 4.46 | 2.44 | 8.51 | 2.52 | 7.25 | 1.16 | > 24.9 | 2.12 | 8.21 | 2.84 | > 32.8 | 0.0776 | 15.4
12 | CCN(CC)CCOc1ccccc1-n1c(C)ccc1-c1ccccc1 | 17.5 | 34.5 | 10.3 | 22.4 | 17.3 | 31.4 | 12.4 | 29.2 | 9.9 | 22.5 | 17.2 | 32.5 | 10.5 | 24.4 | 12.2 | 25.7 | 16.7 | 33.4 | 14.8 | 31.8
13 | CSc1ccc(NC(=O)CCl)cc1 | – | > 10 | – | 6.23 | – | > 10 | – | > 10 | – | 8.02 | – | > 10 | – | 9.79 | – | > 10 | – | > 10 | – | > 10
